Data as given in ChEMBL document CHEMBL1944514, “Fluorescence detection of single nucleotide polymorphisms using nucleic acid probe containing tricyclic base-linked acyclonucleoside” (Bioorg Med Chem Lett, 2012).
Activity calls are given as the source filed them. No cut-off for these calls is given here.

Tests used:
Format in all cases: nucleic-acid assay
Nucleic Acid [1] = experiment: Binding affinity to 3'-r(CUUCCAGUUACAUAGAGA)-5' RNA assessed as fluorescence quenching by spectrophotometry
Nucleic Acid [2] = experiment: Binding affinity to 3'-r(CUUCCAGUUGCAUAGAGA)-5' RNA assessed as fluorescence quenching by spectrophotometry
Nucleic Acid [3] = experiment: Binding affinity to 3'-r(CUUCCAGUUCCAUAGAGA)-5' RNA assessed as fluorescence quenching by spectrophotometry
Nucleic Acid [4] = experiment: Binding affinity to 3'-r(CUUCCAGUUUCAUAGAGA)-5' RNA assessed as fluorescence quenching by spectrophotometry

Activity (Nucleic Acid [1]) | Activity (Nucleic Acid [2]) | Activity (Nucleic Acid [3]) | Activity (Nucleic Acid [4]) | SMILES
Active | Active | Active | inactive | Cc1cn([C@H]2C[C@H](OP(=O)(O)OC[C@H]3O[C@@H](n4ccc(N)nc4=O)C[C@@H]3OP(=O)(O)OC[C@H]3O[C@@H](n4cnc5c(N)ncnc54)C[C@@H]3OP(=O)(O)OC[C@H]3O[C@@H](n4cnc5c(N)ncnc54)C[C@@H]3OP(=O)(O)OC[C@H]3O[C@@H](n4cnc5c(N)ncnc54)C[C@@H]3OP(=O)(O)OC[C@H](Cn3cnc4cc5c(N)ncnc5nc43)OP(=O)(O)OC[C@H]3O[C@@H](n4cnc5c(=O)[nH]c(N)nc54)C[C@@H]3OP(=O)(O)CC[C@H]3O[C@@H](n4cc(C)c(=O)[nH]c4=O)C[C@@H]3OP(=O)(O)OC[C@H]3O[C@@H](n4cnc5c(N)ncnc54)C[C@@H]3OP(=O)(O)OC[C@H]3O[C@@H](n4cc(C)c(=O)[nH]c4=O)C[C@@H]3OP(=O)(O)OC[C@H]3O[C@@H](n4ccc(N)nc4=O)C[C@@H]3OP(=O)(O)OC[C@H]3O[C@@H](n4cc(C)c(=O)[nH]c4=O)C[C@@H]3OP(=O)(O)OC[C@H]3O[C@@H](n4ccc(N)nc4=O)C[C@@H]3OP(=O)(O)OC[C@H]3O[C@@H](n4cc(C)c(=O)[nH]c4=O)C[C@@H]3O)[C@@H](COP(=O)(O)O[C@H]3C[C@H](n4cnc5c(=O)[nH]c(N)nc54)O[C@@H]3COP(=O)(O)O[C@H]3C[C@H](n4cnc5c(=O)[nH]c(N)nc54)O[C@@H]3COP(=O)(O)O[C@H]3C[C@H](n4cnc5c(N)ncnc54)O[C@@H]3COP(=O)(O)O[C@H]3C[C@H](n4cnc5c(N)ncnc54)O[C@@H]3COP(=O)(O)O[C@H]3C[C@H](n4cnc5c(=O)[nH]c(N)nc54)O[C@@H]3CO)O2)c(=O)nc1N
Active | Active | inactive | Active | Cc1cn([C@H]2C[C@H](OP(=O)(O)OC[C@H]3O[C@@H](n4ccc(N)nc4=O)C[C@@H]3OP(=O)(O)OC[C@H]3O[C@@H](n4cnc5c(N)ncnc54)C[C@@H]3OP(=O)(O)OC[C@H]3O[C@@H](n4cnc5c(N)ncnc54)C[C@@H]3OP(=O)(O)OC[C@H]3O[C@@H](n4cnc5c(=O)[nH]c(N)nc54)C[C@@H]3OP(=O)(O)OC[C@H](Cn3cnc4cc5c(N)ncnc5nc43)OP(=O)(O)OC[C@H]3O[C@@H](n4cnc5c(=O)[nH]c(N)nc54)C[C@@H]3OP(=O)(O)CC[C@H]3O[C@@H](n4cc(C)c(=O)[nH]c4=O)C[C@@H]3OP(=O)(O)OC[C@H]3O[C@@H](n4cnc5c(N)ncnc54)C[C@@H]3OP(=O)(O)OC[C@H]3O[C@@H](n4cc(C)c(=O)[nH]c4=O)C[C@@H]3OP(=O)(O)OC[C@H]3O[C@@H](n4ccc(N)nc4=O)C[C@@H]3OP(=O)(O)OC[C@H]3O[C@@H](n4cc(C)c(=O)[nH]c4=O)C[C@@H]3OP(=O)(O)OC[C@H]3O[C@@H](n4ccc(N)nc4=O)C[C@@H]3OP(=O)(O)OC[C@H]3O[C@@H](n4cc(C)c(=O)[nH]c4=O)C[C@@H]3O)[C@@H](COP(=O)(O)O[C@H]3C[C@H](n4cnc5c(=O)[nH]c(N)nc54)O[C@@H]3COP(=O)(O)O[C@H]3C[C@H](n4cnc5c(=O)[nH]c(N)nc54)O[C@@H]3COP(=O)(O)O[C@H]3C[C@H](n4cnc5c(N)ncnc54)O[C@@H]3COP(=O)(O)O[C@H]3C[C@H](n4cnc5c(N)ncnc54)O[C@@H]3COP(=O)(O)O[C@H]3C[C@H](n4cnc5c(=O)[nH]c(N)nc54)O[C@@H]3CO)O2)c(=O)nc1N
Active | Active | Active | Active | Cc1cn([C@H]2C[C@H](OP(=O)(O)OC[C@H]3O[C@@H](n4ccc(N)nc4=O)C[C@@H]3OP(=O)(O)OC[C@H]3O[C@@H](n4cnc5c(N)ncnc54)C[C@@H]3OP(=O)(O)OC[C@H]3O[C@@H](n4cnc5c(N)ncnc54)C[C@@H]3OP(=O)(O)OC[C@H]3O[C@@H](n4ccc(N)nc4=O)C[C@@H]3OP(=O)(O)OC[C@H](Cn3cnc4cc5c(N)ncnc5nc43)OP(=O)(O)OC[C@H]3O[C@@H](n4cnc5c(=O)[nH]c(N)nc54)C[C@@H]3OP(=O)(O)CC[C@H]3O[C@@H](n4cc(C)c(=O)[nH]c4=O)C[C@@H]3OP(=O)(O)OC[C@H]3O[C@@H](n4cnc5c(N)ncnc54)C[C@@H]3OP(=O)(O)OC[C@H]3O[C@@H](n4cc(C)c(=O)[nH]c4=O)C[C@@H]3OP(=O)(O)OC[C@H]3O[C@@H](n4ccc(N)nc4=O)C[C@@H]3OP(=O)(O)OC[C@H]3O[C@@H](n4cc(C)c(=O)[nH]c4=O)C[C@@H]3OP(=O)(O)OC[C@H]3O[C@@H](n4ccc(N)nc4=O)C[C@@H]3OP(=O)(O)OC[C@H]3O[C@@H](n4cc(C)c(=O)[nH]c4=O)C[C@@H]3O)[C@@H](COP(=O)(O)O[C@H]3C[C@H](n4cnc5c(=O)[nH]c(N)nc54)O[C@@H]3COP(=O)(O)O[C@H]3C[C@H](n4cnc5c(=O)[nH]c(N)nc54)O[C@@H]3COP(=O)(O)O[C@H]3C[C@H](n4cnc5c(N)ncnc54)O[C@@H]3COP(=O)(O)O[C@H]3C[C@H](n4cnc5c(N)ncnc54)O[C@@H]3COP(=O)(O)O[C@H]3C[C@H](n4cnc5c(=O)[nH]c(N)nc54)O[C@@H]3CO)O2)c(=O)nc1N
Active | Active | inactive | Active | Cc1cn([C@H]2C[C@H](OP(=O)(O)OC[C@H]3O[C@@H](n4ccc(N)nc4=O)C[C@@H]3OP(=O)(O)OC[C@H]3O[C@@H](n4cnc5c(N)ncnc54)C[C@@H]3OP(=O)(O)OC[C@H]3O[C@@H](n4cnc5c(N)ncnc54)C[C@@H]3OP(=O)(O)OC[C@H](Cn3cnc4cc5c(N)ncnc5nc43)OP(=O)(O)OC[C@H]3O[C@@H](n4cnc5c(=O)[nH]c(N)nc54)C[C@@H]3OP(=O)(O)OC[C@H]3O[C@@H](n4cnc5c(=O)[nH]c(N)nc54)C[C@@H]3OP(=O)(O)CC[C@H]3O[C@@H](n4cc(C)c(=O)[nH]c4=O)C[C@@H]3OP(=O)(O)OC[C@H]3O[C@@H](n4cnc5c(N)ncnc54)C[C@@H]3OP(=O)(O)OC[C@H]3O[C@@H](n4cc(C)c(=O)[nH]c4=O)C[C@@H]3OP(=O)(O)OC[C@H]3O[C@@H](n4ccc(N)nc4=O)C[C@@H]3OP(=O)(O)OC[C@H]3O[C@@H](n4cc(C)c(=O)[nH]c4=O)C[C@@H]3OP(=O)(O)OC[C@H]3O[C@@H](n4ccc(N)nc4=O)C[C@@H]3OP(=O)(O)OC[C@H]3O[C@@H](n4cc(C)c(=O)[nH]c4=O)C[C@@H]3O)[C@@H](COP(=O)(O)O[C@H]3C[C@H](n4cnc5c(=O)[nH]c(N)nc54)O[C@@H]3COP(=O)(O)O[C@H]3C[C@H](n4cnc5c(=O)[nH]c(N)nc54)O[C@@H]3COP(=O)(O)O[C@H]3C[C@H](n4cnc5c(N)ncnc54)O[C@@H]3COP(=O)(O)O[C@H]3C[C@H](n4cnc5c(N)ncnc54)O[C@@H]3COP(=O)(O)O[C@H]3C[C@H](n4cnc5c(=O)[nH]c(N)nc54)O[C@@H]3CO)O2)c(=O)nc1N
Active | inactive | Active | Active | Cc1cn([C@H]2C[C@H](OP(=O)(O)OC[C@H]3O[C@@H](n4ccc(N)nc4=O)C[C@@H]3OP(=O)(O)OC[C@H]3O[C@@H](n4cnc5c(N)ncnc54)C[C@@H]3OP(=O)(O)OC[C@H]3O[C@@H](n4cnc5c(N)ncnc54)C[C@@H]3OP(=O)(O)OC[C@H](Cn3cnc4cc5c(N)ncnc5nc43)OP(=O)(O)OC[C@H]3O[C@@H](n4ccc(N)nc4=O)C[C@@H]3OP(=O)(O)OC[C@H]3O[C@@H](n4cnc5c(=O)[nH]c(N)nc54)C[C@@H]3OP(=O)(O)CC[C@H]3O[C@@H](n4cc(C)c(=O)[nH]c4=O)C[C@@H]3OP(=O)(O)OC[C@H]3O[C@@H](n4cnc5c(N)ncnc54)C[C@@H]3OP(=O)(O)OC[C@H]3O[C@@H](n4cc(C)c(=O)[nH]c4=O)C[C@@H]3OP(=O)(O)OC[C@H]3O[C@@H](n4ccc(N)nc4=O)C[C@@H]3OP(=O)(O)OC[C@H]3O[C@@H](n4cc(C)c(=O)[nH]c4=O)C[C@@H]3OP(=O)(O)OC[C@H]3O[C@@H](n4ccc(N)nc4=O)C[C@@H]3OP(=O)(O)OC[C@H]3O[C@@H](n4cc(C)c(=O)[nH]c4=O)C[C@@H]3O)[C@@H](COP(=O)(O)O[C@H]3C[C@H](n4cnc5c(=O)[nH]c(N)nc54)O[C@@H]3COP(=O)(O)O[C@H]3C[C@H](n4cnc5c(=O)[nH]c(N)nc54)O[C@@H]3COP(=O)(O)O[C@H]3C[C@H](n4cnc5c(N)ncnc54)O[C@@H]3COP(=O)(O)O[C@H]3C[C@H](n4cnc5c(N)ncnc54)O[C@@H]3COP(=O)(O)O[C@H]3C[C@H](n4cnc5c(=O)[nH]c(N)nc54)O[C@@H]3CO)O2)c(=O)nc1N
inactive | inactive | Active | Active | Cc1cn([C@H]2C[C@H](OP(=O)(O)OC[C@H]3O[C@@H](n4ccc(N)nc4=O)C[C@@H]3OP(=O)(O)OC[C@H]3O[C@@H](n4cnc5c(N)ncnc54)C[C@@H]3OP(=O)(O)OC[C@H]3O[C@@H](n4cnc5c(N)ncnc54)C[C@@H]3OP(=O)(O)OC[C@H](Cn3cnc4cc5c(N)ncnc5nc43)OP(=O)(O)OC[C@H]3O[C@@H](n4cc(C)c(=O)[nH]c4=O)C[C@@H]3OP(=O)(O)OC[C@H]3O[C@@H](n4cnc5c(=O)[nH]c(N)nc54)C[C@@H]3OP(=O)(O)CC[C@H]3O[C@@H](n4cc(C)c(=O)[nH]c4=O)C[C@@H]3OP(=O)(O)OC[C@H]3O[C@@H](n4cnc5c(N)ncnc54)C[C@@H]3OP(=O)(O)OC[C@H]3O[C@@H](n4cc(C)c(=O)[nH]c4=O)C[C@@H]3OP(=O)(O)OC[C@H]3O[C@@H](n4ccc(N)nc4=O)C[C@@H]3OP(=O)(O)OC[C@H]3O[C@@H](n4cc(C)c(=O)[nH]c4=O)C[C@@H]3OP(=O)(O)OC[C@H]3O[C@@H](n4ccc(N)nc4=O)C[C@@H]3OP(=O)(O)OC[C@H]3O[C@@H](n4cc(C)c(=O)[nH]c4=O)C[C@@H]3O)[C@@H](COP(=O)(O)O[C@H]3C[C@H](n4cnc5c(=O)[nH]c(N)nc54)O[C@@H]3COP(=O)(O)O[C@H]3C[C@H](n4cnc5c(=O)[nH]c(N)nc54)O[C@@H]3COP(=O)(O)O[C@H]3C[C@H](n4cnc5c(N)ncnc54)O[C@@H]3COP(=O)(O)O[C@H]3C[C@H](n4cnc5c(N)ncnc54)O[C@@H]3COP(=O)(O)O[C@H]3C[C@H](n4cnc5c(=O)[nH]c(N)nc54)O[C@@H]3CO)O2)c(=O)nc1N
